Laboratory results from patent publication US20120035187A1 (priority 2009, published 2012).
Marks after values point to notes of the source that are not given here.

Assays:
PC12-HS cells = experiment: Cytotoxicity by amyloid β fragment, cell survival (Evaluation C); type: cell-based; settings: for Cell survival percentage (%): PC12-HS cells + amyloid β fragment
Experimental: A plurality of peptide fragments (called “AMYLOID β FRAGMENT” commercialized by AnaSpec, Inc., CA, USA, each peptide having the amino acid sequence of SEQ ID NO:1), which have an amino acid sequence positioning from 25th to 35th from the N-terminus of amyloid R peptide with human origin and have been recognized as a main factor of neurocyte death in Alzheimer's disease, were diluted with phosphate buffered saline (PBS) to give a concentration of 2 mM, and used after being aged at 37° C. for six hours to coagulate them to increase their cytotoxicity before use. […] Viability (%) of cells in each well was determined and shown in Table 1 by calculating a relative value when the fluorescent intensity of the control was regarded as 100%. While, the supernatant of cell culture, which had been cultured under the same conditions as above, was removed, and the resulting cells were fixed by the addition of 1% by volume of glutaraldehyde, which had been prepared by diluting with PBS, in a volume of 100 μl/well for 30 min. Thereafter, the cells were stained with […] Hoechst 33258 dye commercialized by SIGMA Corporation, Tokyo, Japan, for five min, observed at a magnitude corresponding to a visual filed containing about 100 cells under a phase contrast microscope and a fluorescent microscope, and counted. The occupied percentage (%) of cells with apoptosis against the total cells in one visual field was calculated and the data was also shown in Table 1. The judgment of cells with apoptosis was made with an index of fragmentation of cell nuclei and chromatin aggregation within the nuclei.
Then, the effect of the above-compounds' concentrations on the cytotoxicity by amyloid β fragment was further investigated. The above 6-compounds and NK-4 were used as test samples, and the protective effects of these compounds against cytotoxicity by amyloid β fragment were evaluated by the same conditions as used in Evaluation C in Experiment 3, except for adding each compound to a well inoculated with PC12-HS cells to give a final concentration as shown in Table 7.

[1] = test system: hamsters with cerebellar ataxia; experiment: Slant tolerance test in hamsters with cerebellar ataxia; type: in vivo, hamster; settings: for endurable-slant-slope-angle (degree): cerebellar ataxia hamsters; for Endurable-slant-slope-angle (°): hamster with cerebellar ataxia, agent of Example 1, 0.5 ml/hamster intraperitoneally once a day for 56 days
Source text: Since NK-4 was confirmed to have a neurodegenerative inhibitory action in Experiment 1, hamsters with cerebellar ataxia (cerebellar ataxia is called “cerebellar A” and hamsters with cerebellar ataxia are called “hamsters with cerebellar A”, hereinafter) as a suitable model for human neurodegenerative diseases (e.g., spinal cerebellar degeneration) were subjected to examine the influence of NK-4 administration on their behaviors and brain tissues. Twenty-five hamsters with natural mutation (Nna1 inhibition), which are known to lose Purkinje's cells after three-weeks of age and then induce a spontaneous onset of kinetic motor ataxia after seven-weeks of age (see Akita K. et al., “J. Neurogenetics”, Vol. 21, pp. 19-29, 2007), had been fed at Hayashibara Biochemical Laboratories., Inc., Okayama, Japan, were randomly allocated to the test groups 1 to 5, five heads in each group, as shown in Table 2. Prior to the onset of cerebellar A (at three-weeks of age), PBS was started to administer to the hamsters in the test group 1 at a dose of 10 ml/kg/day. Prior to the onset of cerebellar A (at three-weeks of age), NK-4 was started to be administered to the hamsters in the test groups 2 to 4 at a daily dose of 20 μg/kg, 100 μg/kg or 500 μg/kg. “IGF-1, human, a product name of insulin-like growth factor, commercialized by Assaypro LLC, MO, USA. These administered ingredients were intraperitoneally administered daily to hamsters once a day up to 10-weeks of age. The degree of symptom of cerebellar A and the improvement effect on the symptom by NK-4 were evaluated with an index of improvement in motor coordination of hamsters by conducting once a week the later described rotarod test and the slant tolerance test. At the age of 10-weeks, the hamsters were subjected to counting the falling down frequency and extracted their brains, which were then histologically evaluated. In parallel, the concentration of glutamic acid in the bloods and cerebrospinal fluids (CSF) of the hamsters was assayed. As a test group 6, five normal hamsters, with the same age as the hamsters with cerebellar A used in the test groups 1 to 5, were provided and tested similarly as the hamsters with cerebellar A in such a manner of intraperitoneally administering PBS to them at a dose of 10 ml/kg/day once a day up to 10-weeks of age.
Hamsters were placed on a slope-angle-variable-board while keeping their heads upward, followed by determining the angle for allowing the hamsters to keep staying thereupon for five seconds for use as an endurable-slant-slope-angle test (see Rivlin et al., “J. Neurosurg.”, Vol. 47, pp. 577-581, […]). The initial slope angle was set to 25 degrees and increased by 5 degrees step by step. When a tested hamster in a static condition fell down within five seconds, the slope angle was decreased by one degree step by step, followed by judging the angle that allows the hamster to keep static staying for five seconds, measuring the tolerable slant-slope-angle, and averaging the data for five heads in each group.
Similarly as in Experiment 2, 130 hamsters with cerebellar ataxia, born within the same week and 3-weeks of age, were randomly divided into 13 groups, consisting of 10 hamsters, respectively. […] The hamsters (10 heads) in the remaining one group were intraperitoneally administered from their age of 3- to 10-weeks with a sterilized 10% maltose solution (pyrogen-free) in an amount of 0.5 ml/hamster (control) once a day for 56 days At the next day after the end of the administration, body weight of each hamster was weighed, followed by performing rotarod test, slope endurance test, and counting of falling down frequency. The types of compounds applied to each group and the results are in Table 25.

[2] = final concentration of compound 12.5 ng/ml
[3] = final concentration of compound 50 ng/ml
[4] = final concentration of compound 200 ng/ml
[5] = final concentration of compound 800 ng/ml

CCN1C=CC(=CC=C(C=Cc2cc[n+](CC)c3ccccc23)c2cc[n+](CC)c3ccccc23)c2ccccc21.[I-].[I-] [NK-4]
Survibal percentage of cells when admixed with cytotoxic factor (%) Amyloid β fragment (PC12-HS cells; NK-4 200 ng/ml): 129 ** % | Survibal percentage of cells when admixed with cytotoxic factor (%) Amyloid β fragment (PC12-HS cells; NK-4 1000 ng/ml): 97 ** % | Survibal percentage of cells when admixed with cytotoxic factor (%) Amyloid β fragment (PC12-HS cells; NK-4 5000 ng/ml): 97 ** % | minimum concentration exerting protection action against injury through amyloid β fragment (PC12-HS cells; PC12-HS cells): 40 ng/mL | Cell survival percentage (%) (PC12-HS cells; [2]): 34 ± 1% | Cell survival percentage (%) (PC12-HS cells; [3]): 69 ± 7% | Cell survival percentage (%) (PC12-HS cells; [4]): 122 ± 32% | Cell survival percentage (%) (PC12-HS cells; [5]): 89 ± 4% | Survibal percentage of cells when admixed with cytotoxic factor (%) Amyloid β fragment (PC12-HS cells; PC12-HS cells, 50 μM amyloid β fragment, 3 days, NK-4 40 ng/ml): 89 ** % | endurable-slant-slope-angle (degree) ([1]; 20 μg/kg body weight i.p. once a day, 4-Weeks): 42.6 ± 0.5 degree | endurable-slant-slope-angle (degree) ([1]; 20 μg/kg body weight i.p. once a day, 5-Weeks): 47.2 ± 0.4 degree | endurable-slant-slope-angle (degree) ([1]; 20 μg/kg body weight i.p. once a day, 6-Weeks): 44.6 ± 0.5 degree | endurable-slant-slope-angle (degree) ([1]; 20 μg/kg body weight i.p. once a day, 7-Weeks): 47.0 ± 0.3 degree | endurable-slant-slope-angle (degree) ([1]; 20 μg/kg body weight i.p. once a day, 8-Weeks): 42.8 ± 0.5 degree | endurable-slant-slope-angle (degree) ([1]; 20 μg/kg body weight i.p. once a day, 9-Weeks): 44.4 ± 0.5 degree | endurable-slant-slope-angle (degree) ([1]; 20 μg/kg body weight i.p. once a day, 10-Weeks): 45.8 ± 0.6 degree | endurable-slant-slope-angle (degree) ([1]; 100 μg/kg body weight i.p. once a day, 4-Weeks): 41.6 ± 0.4 degree | endurable-slant-slope-angle (degree) ([1]; 100 μg/kg body weight i.p. once a day, 5-Weeks): 45.6 ± 0.2 degree | endurable-slant-slope-angle (degree) ([1]; 100 μg/kg body weight i.p. once a day, 6-Weeks): 44.4 ± 0.3 degree | endurable-slant-slope-angle (degree) ([1]; 100 μg/kg body weight i.p. once a day, 7-Weeks): 46.2 ± 0.4 degree | endurable-slant-slope-angle (degree) ([1]; 100 μg/kg body weight i.p. once a day, 8-Weeks): 47.6 ± 0.4 degree | endurable-slant-slope-angle (degree) ([1]; 100 μg/kg body weight i.p. once a day, 9-Weeks): 46.8 ± 0.3 degree | endurable-slant-slope-angle (degree) ([1]; 100 μg/kg body weight i.p. once a day, 10-Weeks): 51.6 ± 0.6 degree | endurable-slant-slope-angle (degree) ([1]; 500 μg/kg body weight i.p. once a day, 4-Weeks): 43.8 ± 0.4 degree | endurable-slant-slope-angle (degree) ([1]; 500 μg/kg body weight i.p. once a day, 5-Weeks): 46.4 ± 0.2 degree | endurable-slant-slope-angle (degree) ([1]; 500 μg/kg body weight i.p. once a day, 6-Weeks): 44.0 ± 0.6 degree | endurable-slant-slope-angle (degree) ([1]; 500 μg/kg body weight i.p. once a day, 7-Weeks): 44.6 ± 0.5 degree | endurable-slant-slope-angle (degree) ([1]; 500 μg/kg body weight i.p. once a day, 8-Weeks): 48.0 ± 0.5 degree | endurable-slant-slope-angle (degree) ([1]; 500 μg/kg body weight i.p. once a day, 9-Weeks): 47.5 ± 0.4 degree | endurable-slant-slope-angle (degree) ([1]; 500 μg/kg body weight i.p. once a day, 10-Weeks): 51.8 ± 0.4 degree | Endurable-slant-slope-angle (°) [1]: 55.8 ± 2.5 °

CCCCN1C=C/C(=C/C=C(/C=C/c2cc[n+](CCCC)c3ccccc23)c2cc[n+](CCCC)c3ccccc23)c2ccccc21 [NK-26]
Endurable-slant-slope-angle (°) [1]: 53.5 ± 1.3 °

CCCCCCCN1C=CC(=CC=C(C=Cc2cc[n+](CCCCCCC)c3ccccc23)c2cc[n+](CCCCCCC)c3ccccc23)c2ccccc21.[I-].[I-] [NK-28]
Endurable-slant-slope-angle (°) [1]: 51.4 ± 2.2 °

CCN1/C(=C/C=C(/C=C/c2sc3ccccc3[n+]2CC)c2sc3ccccc3[n+]2CC)Sc2ccccc21.[I-].[I-] [NK-100]
Cell survival percentage (%) (PC12-HS cells; [2]): 47 ± 2% | Cell survival percentage (%) (PC12-HS cells; [3]): 88 ± 12% | Cell survival percentage (%) (PC12-HS cells; [4]): 60 ± 5% | Cell survival percentage (%) (PC12-HS cells; [5]): 44 ± 4% | Endurable-slant-slope-angle (°) [1]: 50.3 ± 1.9 °

CCCCCCCCN1C=CC(=CC=C(C=Cc2cc[n+](CCCCCCCC)c3ccccc23)c2cc[n+](CCCCCCCC)c3ccccc23)c2ccccc21.[I-].[I-] [NK-147]
Endurable-slant-slope-angle (°) [1]: 49.3 ± 2.1 °

CCCCCCCCCN1C(C)=CS\C1=C/C=C(\C=C\c1scc(C)[n+]1CCCCCCCCC)c1scc(C)[n+]1CCCCCCCCC.[I-].[I-] [NK-393]
Endurable-slant-slope-angle (°) [1]: 53.1 ± 1.5 °

CN(C)c1ccc(/C=C/c2oc3ccccc3[n+]2C)cc1 [NK-528]
Cell survival percentage (%) (PC12-HS cells; [2]): 40 ± 9% | Cell survival percentage (%) (PC12-HS cells; [3]): 36 ± 4% | Cell survival percentage (%) (PC12-HS cells; [4]): 50 ± 10% | Cell survival percentage (%) (PC12-HS cells; [5]): 111 ± 7% | Endurable-slant-slope-angle (°) [1]: 43.9 ± 3.0 °

CC[n+]1ccccc1/C=C/c1ccc(N(C)C)cc1 [NK-557]
Cell survival percentage (%) (PC12-HS cells; [2]): 36 ± 3% | Cell survival percentage (%) (PC12-HS cells; [3]): 114 ± 9% | Cell survival percentage (%) (PC12-HS cells; [4]): 94 ± 11% | Cell survival percentage (%) (PC12-HS cells; [5]): 73 ± 1% | Endurable-slant-slope-angle (°) [1]: 45.1 ± 3.7 °

COc1ccc2oc(/C=C/c3ccc(N(C)C)cc3)[n+](C)c2c1 [NK-1516]
Cell survival percentage (%) (PC12-HS cells; [2]): 34 ± 5% | Cell survival percentage (%) (PC12-HS cells; [3]): 29 ± 5% | Cell survival percentage (%) (PC12-HS cells; [4]): 31 ± 3% | Cell survival percentage (%) (PC12-HS cells; [5]): 70 ± 11% | Endurable-slant-slope-angle (°) [1]: 46.5 ± 2.9 °
